# Source: patent publication US4454136A, “Substituted benzopyranotriazoles and antiallergic use” (Beecham Group Limited, priority 1980, dated 1984)
# Test system: rat PCA
# Test: Passive Cutaneous Anaphylaxis (PCA) in rats
# Format: in vivo, Male Wistar rats
# Details: sc
# Method: Serum containing heat-labile homocytotropic antibody was raised in rats to crystallized ovalbumin XOA by the method of Mota (I. Mota, Immunology, 7, 681, (1964)) using Bordettela pertussis vaccine as adjuvant.
# Passive cutaneous anaphylaxis (PCA) was carried out by a method based on that of Ovary and Bier, (A. Ovary and O. G. Bier, Proc. Soc. Exp. Bio. Med 81, 584, (1952)) as modified by Goose and Blair. (Immunology 16, 749 (1969)).
# Male Wistar rats of 250-300 g were give 0.1 ml of each of six twofold serial dilutions of pooled antiserum in 0.9% saline injected intradermally into separate sites on their shaved backs. Later (72 hours) the animals were challenged by intravenous injection of 0.3 ml of a 1% solution of ovalbumin in an isotonic solution of saline buffered with 0.05 M, pH 7.2, Sorenson Buffer (PBS), mixed with 0.2 ml of a 5% solution of Pontamine Sky Blue (6BX C.I. 24410, Raymond A. Lamb, London) in isotonic saline. The rats were killed after 20 minutes and the diameter of the blue wheals at the antibody injection sites were measured on the outer surface of the skin. The starting dilution of the serum was adjusted so that there was no response, after challenge, at the injection site of the highest dilution and a maximum response at the lowest dilutions. Typically six twofold serial dilutions of the serum from 1/4 to 1/128 were used.
# Compounds were tested for their ability to reduce the diameter of the wheals at those intradermal sites which in control animals gave less than maximum response. Each dose of the compound was administered to six rats at a measured time prior to intravenous challenge with ovalbumin. Control groups of six rats were given the same volume (0.2 ml: 100 g^-1) of carrier fluid at the same time prior to the challenge.
# The results were calculated as follows: % inhibition of PCA=100 (1-a/b) where a=the sum of the diameters of the wheals produced in the test animal at the sites of antibody dilutions as used in control groups and b=the mean sum of the diameters of the wheals produced in the control groups of animals at those antibody sites where at least five out of six of the animals gave less than maximum response. A typical variation in the control group of animals was SEM±6%.
# *Time between administration of compound and antigen challenge.
Compound,"% inhibition of rat PCA (PBS with NaHCO3, 10' before antigen challenge, 5 mg/kg)","% inhibition of rat PCA (PBS with NaHCO3, 10' before antigen challenge, 20 mg/kg)","% inhibition of rat PCA (PBS with NaHCO3, 30' before antigen challenge, 5 mg/kg)","% inhibition of rat PCA (PBS with NaHCO3, 30' before antigen challenge, 20 mg/kg)","% inhibition of rat PCA (PBS with NaHCO3, 10' before antigen challenge, 10 mg/kg)","% inhibition of rat PCA (PBS with NaHCO3, 30' before antigen challenge, 10 mg/kg)"
"Cc1c(OS(C)(=O)=O)ccc2c(=O)c3[nH]nnc3oc12 [Example 1e, 6-Mesyloxy-5-methyl-9-oxo-1H,9H-benzopyran o[2,3-d]-v-triazole]",42%,57%,18%,41%,–,–
"Cc1c(O)ccc2c(=O)c3[nH]nnc3oc12 [Example 1f, 6-Hydroxy-5-methyl-9-oxo-1H,9H-benzopyrano[2,3-d]-v-triazole]",–,–,–,–,32%,19%
